{"source": "patent US20260216181A1", "about": "“COMPOSITIONS AND METHODS FOR TREATING CANCER” (Coiled Therapeutics, Inc., priority 2022, published 2026)", "key": {"RKO xenograft": {"test_system": "RKO xenograft", "assay": "RKO colon cancer xenograft tumor growth", "type": "in vivo, athymic Balb/c nude mice", "experimental": "Six-to-eight-week-old female athymic Balb/c nude mice were housed with a temperature-controlled and 12-hour light/12-hour dark cycle environment. For in vivo colon cancer tumor growth, 5×10^6 RKO cells were prepared in 100 μl of DMEM and injected into right flank of female nude mice. Mouse weight and tumor volume were measured twice a week. Tumor volumes were calculated as length×width^2×0.5. Once the tumor volume had reached about 150-175 mm^3, xenografts were randomized into groups (8 mice per group). Animals were treated with vehicle, Compound 80 or oxaliplatin as mentioned in the table. The formulation for vehicle and Compound 80 was 50% PEG400 and 20% Cremophor RH40 final (50% of 40% Cremophor) in Acetate buffer, PH=4. Oxaliplatin was prepared in glucose solution. The mice were sacrificed after around 3 weeks or if the tumors reached a predefined tumor volume cut-off of 2500 mm^3."}, "MDA-MB-231 xenograft": {"test_system": "MDA-MB-231 xenograft", "assay": "MDA-MB-231 xenograft tumor growth", "type": "in vivo, athymic Balb/c nude mice", "conditions": "20, 25 and 30 mpk BID", "experimental": "(§1) Compound 80 was tested in other xenograft models using the following cell lines: triple negative breast cancer cell line, MDA-MB-231, ovarian cancer cell line, SKOV-3 and endometrium cell line, HEC-59. For the SKOV-3 xenograft, 1.5×10^7 SKOV-3 cells in 200 μl of 1:1 DMEM:Matrigel (Thermo Fisher, NJ, USA) and for the MDA-MB-231 xenograft, 1.×10^7 MDA-MB-231 cells in 100 μl of 1:1 DMEM:Matrigel (Thermo Fisher, NJ, USA) for was injected in the right flank of six-to-eight-week-old female athymic Balb/c nude mice. When the tumor volume reached mean of ~200 mm^3 mice for SKOV-3 xenografts and between 150-175 mm^3 for MDA-MB-231 xenografts, mice were randomized in a group of 8, and treatment was initiated vehicle, 20 mpk BID, 25 mpk BID and 30 mpk BID of Compound 80. For the HEC-59 xenografts, 1.×10^7 HEC-59 cells in 100 μl of DMEM (Lonza, NJ, USA) was injected in the right flank of six-to-eight-week-old female athymic Balb/c nude mice. When the tumor volume reached mean of ~150 mm^3 mice were randomized in a group of 8 mice, and treatment was initiated vehicle, 20 mpk BID, 40 mpk QD and 30/40 mpk BID of Compound 80."}, "SKOV-3 xenograft": {"test_system": "SKOV-3 xenograft", "assay": "SKOV-3 xenograft tumor growth", "type": "in vivo, athymic Balb/c nude mice", "conditions": "20, 25 and 30 mpk BID", "experimental": "as §1"}, "HEC-59 xenograft": {"test_system": "HEC-59 xenograft", "assay": "HEC-59 xenograft tumor growth", "type": "in vivo, athymic Balb/c nude mice", "conditions": "20 mpk BID, 40 mpk QD, 30/40 mpk BID", "experimental": "as §1"}, "[1]": {"test_system": "glioblastoma (GBM) xenografts", "conditions": "Polson et al., 2018; cited from earlier work"}, "[2]": {"conditions": "Wurdak et al., 2010; cited from earlier work"}, "neuronal differentiation": {"test_system": "neuronal differentiation", "conditions": "rats; Wurdak et al., 2010; cited from earlier work"}, "ovarian cancer cells": {"test_system": "ovarian cancer cells", "conditions": "Yao et al., 2014; cited from earlier work"}, "[3]": {"test_system": "ovarian cancer xenografts", "conditions": "Yao et al., 2014; cited from earlier work"}}}
{"smiles": "C[C@@H]1CN(c2ncc(F)c(Nc3cc(-c4ccc(OC(F)F)cc4)cnn3)n2)C[C@H](C)O1", "note": "[Compound 80, 5-(4-(difluoromethoxy)phenyl)-N-(2-((2R,6S)-2,6-dimethylmorpholino)-5-fluoropyrimidin-4-yl)pyridazin-3-amine]", "values": [{"measurement": "tumor growth inhibition", "setting": "RKO xenograft; RKO xenograft, 20 and 30 mg/kg BID, 50 mg/kg QD, PO", "value": "strong tumor growth inhibition in a dose-dependent manner"}, {"measurement": "tumor growth inhibition compared to the standard of care (FIG. 1)", "setting": "RKO xenograft; xenograft model, vs standard of care", "value": "superior tumor growth inhibition"}, {"measurement": "tumor growth inhibition or regression", "setting": "MDA-MB-231 xenograft", "value": "Statistically significant tumor growth inhibition or regression"}, {"measurement": "tumor growth inhibition or regression", "setting": "SKOV-3 xenograft", "value": "Statistically significant tumor growth inhibition or regression"}, {"measurement": "tumor growth inhibition or regression", "setting": "HEC-59 xenograft", "value": "Statistically significant tumor growth inhibition or regression"}]}
{"smiles": "CC(C)CNc1ccnc(NCc2csc(-c3ccccc3)n2)n1", "note": "[KHS101]", "values": [{"measurement": "tumor growth of glioblastoma (GBM) xenografts", "setting": "[1]", "value": "suppressed"}, {"measurement": "oral systemic stability", "setting": "[2]", "value": "low oral systemic stability"}, {"measurement": "neuronal differentiation", "setting": "neuronal differentiation", "value": "promote neuronal differentiation"}]}
{"smiles": "CCN(Cc1ccncc1)Cc1c(O)ccc2c(-c3cc4ccccc4oc3=O)cc(=O)oc12", "note": "[SPL-B]", "values": [{"measurement": "centrosome microtubule nucleation", "setting": "ovarian cancer cells", "value": "inhibit the centrosome microtubule nucleation"}, {"measurement": "tumor growth in ovarian cancer xenografts", "setting": "[3]", "value": "suppress tumor growth"}]}
